The values that follow come from the METLIN SMRT retention time set (Domingo-Almenara et al. 2019).

Structures are written as SMILES.

This data set is described as follows: gradient 5% acetonitrile 3 min, to 50% in 2 min, to 85% in 15 min, held 3 min, 100 µL/min. The following applies: column: Zorbax Extend-C18 2.1 x 50 mm; eluents: water / acetonitrile, 0.1% formic acid. A digest of the protocol:
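The mobile phases were water and acetonitrile, each with 0.1% formic acid, pumped at 100 μL/min through a Zorbax Extend-C18 column (2.1 × 50 mm, 1.8 μm). Pure standards were injected as mixtures of ~100 molecules and detected by a quadrupole time-of-flight mass spectrometer in positive and negative ionization mode. Retention time came from computationally picked adduct peaks, each inspected by hand.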
Take `CCc1cc(-c2csc(S(=O)(=O)NCCCN3CCC(C)CC3)c2)on1`: the RP-LC retention time is 677 s.

In turn, `CC(Cc1ccco1)NC(=O)c1cc(-c2ccccn2)nc2ccccc12` (centres undefined) yielded an RP-LC retention time of 843 s.

Take `CCOc1ccc(CC(=O)N2CCCC2c2nc(-c3ccc(OC)c(OC)c3)no2)cc1OCC` (centres undefined): the RP-LC retention time amounted to 925 s. Molecule `COc1ccc(-c2cc3n(n2)CCCN(C(=O)C2CCOC2)C3)cc1` (centres undefined) returned an RP-LC retention time of 703 s. On to `COc1cccc(-c2nnc(Cc3nc(-c4cccc(C)c4)no3)o2)c1`, for which the RP-LC retention time was determined as 1050 s. The value for `COc1cc(OC)cc(C(=O)N2CCN(c3cc(C(C)C)n4cnnc4n3)CC2)c1` was 576 s. Next, `O=C(NC1CC1)[C@@H]1C[C@H](Oc2ccccc2)CN1C(=O)c1n[nH]c(=O)c2ccccc12`: 685 s; `O=C(NCCc1csc(C2CCN(C(=O)C3CCC3)CC2)n1)C1CCC1`: 703 s; `CCn1cc(CCNS(=O)(=O)Cc2ccccc2Cl)c2cccnc21`: 804 s. Molecule `Cc1ccc2nc(-c3cc(Br)ccc3F)c(Nc3ccc4c(c3)OCCO4)n2c1` gave an RP-LC retention time of 737 s. Next, `Cc1ccc(NC(=O)Cn2cccc2-c2nnc(C3CC3)o2)c(Cl)c1`: 930 s; `COc1ccc(C2(C(=O)Nc3cc(-c4ccco4)no3)CC2)cc1`: 1000 s.

With `O=C(c1c(OCC2CC2)cc(=O)n2c1CCCCC2)N1CCc2ccccc2C1`, the RP-LC retention time worked out at 837 s. `CC1(C(=O)NCc2ccccc2)CCN(S(=O)(=O)c2ccccc2C(F)(F)F)CC1` had an RP-LC retention time of 970 s.

As to `Cc1ccc(N2C(=O)CCS2(=O)=O)cc1S(=O)(=O)N1c2ccccc2CC1C` (centres undefined), the RP-LC retention time is 867 s.

For the molecule `CCOC(=O)c1ccc(N2C(=O)Cn3cccc3C2C(=O)NC2CCCCC2C)cc1` (centres undefined), the RP-LC retention time was found to be 994 s. As to `COc1ccc(Cl)cc1NC(=O)c1cn(C)c2ncccc12`, the RP-LC retention time worked out at 955 s.

Regarding `CCOc1ccc(-c2noc(Cn3ccn4nc(-c5ccc(Cl)cc5)cc4c3=O)n2)cc1OC`, the RP-LC retention time was 1130 s. Next, `COc1ccc(C)cc1NC(=O)C1CCN(C(=O)C(C)(C)C)CC1`: 784 s. Next, `Cc1ccc(-n2nc(CO)c(C(=O)NC3CCCC3)n2)cc1`: 1030 s. Regarding `COc1ccc(CNC(=O)NCc2nnnn2-c2ccc(F)c(F)c2)cc1OC`, the RP-LC retention time was 678 s. Next, `CCOc1cc(-c2cccc(Cl)c2)nc2ccc(NC(=O)c3ccco3)cc12`: 830 s; `COc1ccccc1CCC(=O)N1CCn2c(C)nnc2C1`: 607 s.

In turn, `CCOC(=O)c1c(S(=O)(=O)N2CCC(C(=O)NCc3ccccc3OC)CC2)c(C)n(C)c1C` registered an RP-LC retention time of 800 s.

As to `O=S(=O)(NCc1ccc2[nH]c3c(c2c1)CCCC3)c1ccccc1`, the RP-LC retention time was 600 s. `CN(C)[C@@H]1CN(C(=O)c2cc(Cl)ccc2F)C[C@H]1CO` came in with an RP-LC retention time of 571 s. In turn, `Cc1cc(C)cc(S(=O)(=O)N2CCc3c(c(-c4nnc(-c5ccccc5F)o4)nn3C)C2)c1` displayed an RP-LC retention time of 998 s. The value for `CC(=O)N1CCc2cc(-c3ccc(C(=O)NCCN4CCCCC4C)cc3)ccc21` (centres undefined) was 622 s; that for `O=C(c1ccc(Cl)s1)N1CCC(Oc2nc3c(F)cc(F)cc3s2)CC1` was 1140 s; that for `C=CCN1CC[C@]2(C)c3cc(O)ccc3CC1[C@@H]2C` was 594 s. Next, `CCN(C(=O)C1CCCN(S(=O)(=O)c2cc(-c3noc(C)n3)cs2)C1)c1ccccc1` (centres undefined): 983 s; `CCOCCCNC(=O)c1ccc(OCc2nnc(C(=O)Nc3ccc(F)c(F)c3)s2)cc1`: 912 s. For the molecule `CCOC(=O)c1c(C)c(C(=O)CN(CC2CCCO2)C(=O)c2ccc(F)cc2)c(C)n1CC` (centres undefined), the RP-LC retention time was 973 s. The molecule `COc1ccc(OC)c(NC(=O)NC2CCN(c3ccc(C)cc3)C2=O)c1` (centres undefined) yielded an RP-LC retention time of 837 s. `CCc1sc(NC(=O)CCSc2ccccc2)nc1-c1ccccc1` came in with an RP-LC retention time of 1210 s. Next, `O=C(Cc1csc(SCC(=O)c2ccccc2)n1)Nc1cccc2nsnc12`: 981 s; `CC(C)N1CCn2cc(S(=O)(=O)Nc3cccc(Cl)c3)cc2C1=O`: 805 s; `O=c1cc(CN(Cc2ccccc2)Cc2ccccc2)nc2ccccn12`: 671 s. The value for `CCCCN1C(=O)CN(S(=O)(=O)c2ccc(C)cc2)CC1(C)C(=O)NCc1ccccc1` (centres undefined) was 974 s; that for `O=C(NC1CC1)C1CCCN(S(=O)(=O)c2c[nH]c(C(=O)N3CCCC3)c2)C1` (centres undefined) was 627 s.

Turning to `O=C(NCc1cccs1)c1nc2ccccn2c1-c1ccccc1`, the RP-LC retention time was 853 s.

The molecule `CC(NCC(O)COc1c(F)cc(Br)cc1F)c1ccccc1` (centres undefined) had an RP-LC retention time of 618 s. Next, `O=C(NCCN1CCN(C(=O)NC(c2ccccc2)c2ccccc2)CC1)c1ccsc1`: 605 s; `Cc1ccc(Cl)cc1NC(=O)Cn1cnc2c(sc3nc(-c4ccccc4)ccc32)c1=O`: 1070 s; `Nc1cc(=O)nc(SCC(=O)NC2CCCCC2)n1-c1cccc(C(F)(F)F)c1`: 649 s. Next, `COc1cc(OC)cc(C(=O)N2CCN=C2N2CCC(C)CC2)c1`: 694 s; `O=C(C1CCCN(c2cnc3nccnc3c2)C1)N1CCN(c2ccccc2)CC1` (centres undefined): 715 s. Next, `COc1ccc(-n2ccn3cc(-c4ccc(OC)c(OC)c4)nc3c2=O)cc1`: 723 s; `COc1ccc(Cl)cc1NC(=O)NCCc1cn(C)c2ncccc12`: 756 s; `Cc1ccc(N2C(=O)CCS2(=O)=O)cc1S(=O)(=O)N1CCC(C(N)=O)CC1`: 638 s.

With `COc1ccc(-c2cc3c4nnc(CCC(=O)NCc5ccccc5C(F)(F)F)n4ccn3n2)cc1`, the RP-LC retention time came to 822 s. Turning to `Cc1cnc(C2CCN(S(=O)(=O)c3ccccc3)C2)n1C(C)C` (centres undefined), the RP-LC retention time turned out to be 564 s.

Turning to `Cc1noc(CNC(=O)Cn2cnc3ccccc3c2=O)n1`, the RP-LC retention time came to 576 s. With `Cc1ccc(CNC(=O)C2CCN(S(=O)(=O)c3ccc4c(c3)CCCC(=O)N4)CC2)o1`, the RP-LC retention time is 710 s. The value for `O=C(c1cn2c(n1)COCC2)N1CCN(c2cccc(Cl)c2)CC1` was 708 s; that for `CCOc1ccc(NC(=O)Cn2cccc2-c2nnc(C3CCC3)o2)cc1` was 912 s. The value for `CC(C)Cn1nc2n(c1=O)CCN(S(=O)(=O)c1cccc3cccnc13)CC2` was 754 s; that for `CN1CCC(Cc2ccc(C(=O)O)cc2)CC1` was 569 s; that for `O=C(NCCCN1CCCCCC1)C1CCCN(c2nc3cccnc3s2)C1` (centres undefined) was 595 s.
